Values quoted from earlier work in patent US20200022905A1 (priority 2009, published 2020).
Read-outs that look alike come from different tables or passages of the source.

Tests used:
[1] = especially by non-smokers
[2] = not given; remark: listed apart in the source

CN1CCCC1c1cccnc1 (stereo not shown) [Nicotine]
dose after which serious toxic reactions may be experienced [1]: 4 to 8 mg
ratio of non-ionized form (pH 7.4): 30%
ratio of non-ionized form (pH 8.5): 80%
time to get to the brain after smoke inhalation [2]: ten to twenty
